US9018248B2, “Fatty acid derivatives of catechins and methods of their use” (Genesis Group Inc., priority 2010, dated 2015)
Marks after values point to notes of the source that are not given here.

Columns and labels:
HCV NS3/4A protease = HCV NS3/4A protease (Hepatitis C virus genotype 1a, UniProt P27958); test: Inhibition against HCV protease; format: biochemical; conditions: for IC50: HCV NS3/4A protease 0.5 μg/ml, 30 min, room temperature; for HCV protease inhibitory activity relative to embelin: fold stronger than embelin
Procedure: An aliquot (2 μl) of test compounds dissolved in DMSO was added to each well of a 384-well black Assay plate, followed by addition of 8 μl of HCV NS3/4A protease solution (0.5 μg/ml). The reaction was initiated by adding 10 μl of freshly diluted substrate (100× dilution of a DMSO stocking solution). The mixture was incubated at room temperature for 30 min, and the fluorescence intensity was measured at 485 nm for excitation and 535 nm for emission by a TECAN GENios plate reader. […] All fluorescence values were corrected with a substrate blank. Samples were assayed at different concentrations to plot a concentration VS. inhibition percentage curve, and IC50 values were obtained from the curve for each sample. A known HCV protease inhibitor, embelin, was used as a reference. Discussion

[1] = DPPH radical scavenging capacity by EPR; conditions: test compounds 25 μM in ethanol, EPR after 1 min
Procedure: An ORAC (Oxygen Radical Absorbance Capacity) assay was carried out using a Fluostar Optima plate reader (BMG Labtech, Durham, N.C.) equipped with an incubator and two injector pumps. A modified method for lipophilic antioxidants was followed, in which randomly methylated cyclodextrin (RMCD) was used as water solubility enhancer, as described by Huang et al, J. Agric. Food Chem., 2002, 50, 1815-1821. Trolox standards (6.25-50 μM) and samples (0.25 μM) were dissolved in acetone/water (1:1, v/v) containing 7% RMCD. Fluorescein and […] [2,2′-azobis(2-aminopropane)dihydrochloride] were used as the probe and radical generator, respectively. Twenty microliters of trolox standard or test compound solutions (7% RMCD used as a control) were added into each well of a 96-well black microplate, followed by addition of fluorescein. The plate was incubated at 37° C. for 15 min and then AAPH in buffer was injected into the wells. The conditions used were as follows: 0.3 s position delay, 8 s orbital shaking before each cycle with 4 mm width, 210 s cycle time, and 25 cycles. Fluorescence was measured at an excitation wavelength of 485 nm and emission of 520 nm. A standard curve was plotted and ORAC values for test compounds were obtained as mol of trolox equivalents (TE) per mol of test compound. (3b) Reducing Power The reducing power of EGCG and its derivatives (compounds 1a-1c) was determined according to Oyaizu (1986). One milliliter of test compounds (1 mM in 95% ethanol) was mixed with 2.5 ml of phosphate buffer solution (PBS, 0.2 M, pH 6.6) and 2.5 ml of a 1% solution of potassium ferricyanide, K3Fe(CN)6. The mixture was incubated at 50° C. for 20 min. […] The content was mixed well and the absorbance was recorded at 700 nm. Higher absorbance of the reaction mixture indicates greater reducing power. […] (3c) Metal Chelation The metal chelation capacity was measured following a procedure by Decker E. A. et al., J. Agric. […] The absorbance was measured afterwards at 562 nm. A blank without ferrozine was run for each compound, since the antioxidant-Fe^2+ complex gives a colour that might interfere with the absorbance reading. Metal chelation capacity was calculated using the following equation: % chelation=[1−(Abs.sample−Abs.blank)/Abs.control]×100 where, control was devoid of test compounds, while blank contained no ferrozine. (3d) DPPH Antioxidant activity of the lipophilic EGCG derivatives was ALSO evaluated as DPPH (1,1-diphenyl-2-picrylhydrazyl) radical scavenging capacity using EGCG as the reference. DPPH scavenging capacity of test compounds was determined by EPR (electron paramagnetic resonance) according to Madhujith and Shahidi (16) with slight modifications. […] The spectrum was recorded after 1 min. […]

[2] = Lipophilicity, octanol-water partition coefficient by shake flask method; format: physicochemical; conditions: 22° C., P=log Ax/(A0−Ax)
Procedure: Lipophilicity of the identified EGCG derivatives was determined as octanol-water partition coefficient (P) by a shake flask method. Briefly, a flask containing a mixture of octanol (100 ml) and deionized water (100 ml) was shaken in a shaking waterbath at room temperature (22° C.) for 24 hours. The content was then allowed to stand for 24 hours for separation into two phases. Test compounds (0.2 μmol) were dissolved in 5 ml of the upper phase (pre-saturated octanol), and the absorbance (A0) was read at 280 nm. A blank with no sample was prepared. Five milliliters of the bottom phase (pre-saturated water) were added afterwards, and the mixtures were vortexed for 1 min and allowed to stand for 24 hours for separation. Absorbance (Ax) of the upper phase in the vials was measured and octanol-water partition coefficient (P) calculated using the following equation: P=log Ax/(A0−Ax), where blank-corrected absorbance was used.

[3] = Bulk oil system, stripped corn oil, Rancimat; conditions: PF=IPsample/IPcontrol; Rancimat 100° C., 1 μmol in 3 g oil
Procedure: One milliliter of EGCG and its derivatives dissolved in ethanol (1 μmol/ml) was transferred into a reaction vessel, followed by evaporation of the solvent to dryness under a stream of nitrogen. To each vessel (an empty vessel was used as control) 3 g of stripped corn oil (devoid of endogenous antioxidants) were added. The evaluation was carried out under accelerated oxidation in a Rancimat (Metrohm Model 743, Herisau, Switzerland) conditions at 100° C. with an air flow rate of 20 l/h. Lipid oxidation in the absence and presence of test compounds was monitored by changes in electrical conductivity, arising from the formation of volatile oxidation products. The induction periods (IP, time to reach a sudden increase in oxidation rate) were recorded. […] Antioxidant activity was interpreted as protection factor (PF), which was calculated as follow. PF=IPsample/IPcontrol where, IPsample and IPcontrol represent induction periods for the oil with and without test compounds, respectively. Discussion

Chain of HCV NS3/4A protease (P27958 1027-1657): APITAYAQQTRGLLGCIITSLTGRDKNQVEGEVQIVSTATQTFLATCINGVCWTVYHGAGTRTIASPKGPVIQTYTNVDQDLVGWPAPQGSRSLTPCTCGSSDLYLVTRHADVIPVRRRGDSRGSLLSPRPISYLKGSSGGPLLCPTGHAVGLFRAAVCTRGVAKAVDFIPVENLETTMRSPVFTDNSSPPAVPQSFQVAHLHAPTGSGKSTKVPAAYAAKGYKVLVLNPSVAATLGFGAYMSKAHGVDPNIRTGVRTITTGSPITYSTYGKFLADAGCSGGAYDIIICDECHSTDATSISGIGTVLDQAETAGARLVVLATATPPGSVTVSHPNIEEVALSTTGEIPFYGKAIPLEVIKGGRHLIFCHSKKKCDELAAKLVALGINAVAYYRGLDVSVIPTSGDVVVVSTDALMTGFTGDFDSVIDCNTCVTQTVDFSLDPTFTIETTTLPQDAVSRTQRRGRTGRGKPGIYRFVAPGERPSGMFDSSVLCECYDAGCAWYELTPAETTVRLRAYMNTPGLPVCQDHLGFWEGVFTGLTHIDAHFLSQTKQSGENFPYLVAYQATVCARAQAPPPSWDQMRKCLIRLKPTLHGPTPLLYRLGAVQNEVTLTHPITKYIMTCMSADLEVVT
Chain of HCV NS3/4A protease (P27958 1658-1711): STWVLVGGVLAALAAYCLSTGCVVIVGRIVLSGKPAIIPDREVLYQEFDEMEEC

## CCCCCCCCCCCCCCCCCC(=O)Oc1cc(C(=O)OC2Cc3c(O)cc(O)cc3OC2c2cc(OC(=O)CCCCCCCCCCCCCCCCC)c(O)c(OC(=O)CCCCCCCCCCCCCCCCC)c2)cc(OC(=O)CCCCCCCCCCCCCCCCC)c1O (stereo not shown) [Compound 1a, EGCG stearate]
HCV NS3/4A protease
  IC50: 130 nM
  HCV protease inhibitory activity relative to embelin: approximately 80 fold
[1]
  DPPH scavenging: 5.85 mmol trolox eq./mol
[2]
  logP: 1.42 ± 0.02
[3]
  Protection Factor (PF): 2.38

## CCC=CCC=CCC=CCC=CCC=CCCCC(=O)Oc1cc(C(=O)OC2Cc3c(O)cc(O)cc3OC2c2cc(OC(=O)CCCC=CCC=CCC=CCC=CCC=CCC)c(O)c(OC(=O)CCCC=CCC=CCC=CCC=CCC=CCC)c2)cc(OC(=O)CCCC=CCC=CCC=CCC=CCC=CCC)c1O (stereo not shown) [Compound 1b]
HCV NS3/4A protease
  IC50: 6 nM
  HCV protease inhibitory activity relative to embelin: 1700 fold
[1]
  DPPH scavenging: 4.66 mmol trolox eq./mol
[2]
  Lipophilicity (partition coefficient, P): 1.10 ± 0.06 ^b
[3]
  Protection Factor (PF): 0.82

## CCC=CCC=CCC=CCC=CCC=CCC=CCCC(=O)Oc1cc(C(=O)OC2Cc3c(O)cc(O)cc3OC2c2cc(OC(=O)CCC=CCC=CCC=CCC=CCC=CCC=CCC)c(O)c(OC(=O)CCC=CCC=CCC=CCC=CCC=CCC=CCC)c2)cc(OC(=O)CCC=CCC=CCC=CCC=CCC=CCC=CCC)c1O (stereo not shown) [Compound 1c]
HCV NS3/4A protease
  IC50: 6 nM
  HCV protease inhibitory activity relative to embelin: 1700 fold
[1]
  DPPH scavenging: 5.09 mmol trolox eq./mol
[2]
  Lipophilicity (partition coefficient, P): 1.03 ± 0.10 ^b
[3]
  Protection Factor (PF): 0.77

## O=C(O[C@@H]1Cc2c(O)cc(O)cc2O[C@@H]1c1cc(O)c(O)c(O)c1)c1cc(O)c(O)c(O)c1 [EGCG, Epigallocatechin gallate, reference compound]
HCV NS3/4A protease
  IC50: > 200000 nM
[1]
  DPPH scavenging: 3.13 mmol trolox eq./mol
[2]
  logP: 0.48 ± 0.01
[3]
  Protection Factor (PF): 1.40
